Data taken from patent US9249085B2, “Aniline derivatives, their preparation and their therapeutic application” (FOVEA PHARMACEUTICALS, priority 2011, dated 2016).
In brackets after ≈: the same amount, converted by molar mass.

Key:
[1] = Solubility at equilibrium; type: physicochemical; settings: thermodynamic from solid; in the diluent, room temperature, n=1, HPLC quantification
Protocol: Solubility of the test materials was evaluated on n=1 trial, following the procedure below:
2.5 mg of each compound for solubility testing were dissolved in 5 mL of the diluent, an initial concentration of 500 ug/mL. The mixture was first vortexed for 15 seconds to allow a good wetting of the API, then sonicated for 5 minutes to promote solubilisation. The vortex/sonication cycle was repeated 3 times. The suspension was stirred at room temperature using a magnetic stirrer at 300 rpm. This mixture is observed at 4 h, 24 h and 48 h to determine if the test compound has dissolved. At each time point if the compound is completely solubilised a further 5 mg of the test compound is added and the process repeated.
When no more test compound will dissolve in the diluent, an aliquot of 0.5 mL of the suspension was withdrawn and centrifuged 3×2 min at 13400 rpm. The supernatant for HPLC quantification was filtered using 0.2 μm Pall Aerodisc Nylon 13 mm membrane and quantified by comparing to the calibration curve, using the method: column: Nucleodur C18 ISIS 3 μm 4.6×125 mm, Mobile Phase (CH3COOH 0.05% in H2O and ACN), Flow rate: 1 ml/min, Wavelength: λ=240 nm (IIa and IIc) or […] (IId), Injected volume: 10 μl, Gradient of concentration: from 30% B to 100% B in 6 min.

[2] = test system: Laser-Induced Hypertensive Cynomolgus Monkey; test: Intraocular pressure in laser-induced hypertensive cynomolgus monkey; type: in vivo; settings: 0.01% topical, 50 μl drop to glaucomatous eye once daily for 5 days; FIG. 1
Protocol: Laser-Induced Hypertensive Cynomolgus Monkey
Ten adult female cynomolgus monkeys, each weighing 3-5 kg, in which glaucoma had been induced unilaterally by diode laser photocoagulation of the mid-trabecular meshwork, were used in this study.
Intraocular pressure (IOP) was measured at 0 hr (before drug administration) and then hourly until 6 hrs after drug administration on one baseline day, one vehicle-treatment day, and treatment days 1, 3, and 5 with 0.01% of compound II(d).
Compound II(d) was tested in two groups of 4 monkeys for a total of 8 monkeys. Following one baseline day (untreated) and one vehicle-treatment day (50 μl (25 μl×2), drop of vehicle to the glaucomatous eye at 9:30 (a 50 μl drop (25 μl×2) of compound (II(d)) were topically applied to the glaucomatous eye only once daily at 9:30 am for 5 consecutive days.
Slit-lamp examination for the detection of aqueous humor flare and cells was performed in a dark room before drug administration and at 1, 3 and 5 hrs after dosing on baseline day and at the same times on treatment days 1, 3 and 5.
Two-tailed paired and unpaired t test and the ANOVA test were used for statistical analysis.

[3] = target: recombinant human prostanoid EP2 receptor (Homo sapiens (Human), UniProt P43116); test: Human prostanoid EP2 receptor cellular functional assay (cAMP, HTRF); type: cell-based
Chain of recombinant human prostanoid EP2 receptor (P43116 whole entry): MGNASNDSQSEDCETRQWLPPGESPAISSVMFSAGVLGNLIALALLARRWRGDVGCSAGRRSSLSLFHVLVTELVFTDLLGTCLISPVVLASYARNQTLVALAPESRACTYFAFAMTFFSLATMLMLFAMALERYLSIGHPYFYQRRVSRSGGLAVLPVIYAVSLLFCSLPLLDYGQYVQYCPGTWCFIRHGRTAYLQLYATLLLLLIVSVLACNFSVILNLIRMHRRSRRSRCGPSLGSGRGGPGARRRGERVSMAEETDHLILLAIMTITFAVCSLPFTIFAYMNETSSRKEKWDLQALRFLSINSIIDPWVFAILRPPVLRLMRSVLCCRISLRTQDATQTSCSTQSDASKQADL
Protocol: Test 1.2: Human Prostanoid EP2 Receptor Cellular Functional Assay
Human CHO cells expressing the recombinant human prostanoid EP2 receptor were suspended in assay medium (HBSS buffer (Invitrogen) containing 20 mM HEPES (pH7.4) and 500 μM isobutyl-methylxanthine IBMX) and plated out to yield approximately 1×10^4 cells/well in a 96-well. Following this, cells were incubated with agonists for 30 min in the presence of the test compounds. For stimulated control measurements, separate assay wells contain 10 μM PGE2 (control specific agonist). All incubations were carried out at 37° C. in a 5% CO2 atmosphere. Following incubation, the amount of cAMP in each well was determined by HTRF method. The cells are lysed and the fluorescence acceptor (D2-labeled cAMP) and fluorescence donor (anti-cAMP antibody labeled with europium cryptate) are added. After 60 min at room temperature, the fluorescence transfer is measured at λ ex=337 nm and λ em=620 and 665 nm using a microplate reader (Rubystar, BMG).
The cAMP concentration is determined by dividing the signal measured at 665 nm by that measured at 620 nm (ratio).
The standard reference agonist PGE2 was tested at several concentrations to generate a concentration-response curve to determined EC50.
Analysis and Expression of Results
The results are expressed as a percent of control specific agonist response ((measured specific response/control specific agonist response)×100) obtained in the presence of the test compounds. The EC50 values (concentration producing a half-maximal specific response) were determined by non-linear regression analysis of the concentration-response curves generated with mean replicate values using Hill equation curve fitting (Y=D+[(A−D)/(1+(C/C50)nH)], where Y=specific response, D=minimum specific response, A=maximum specific response, C=compound concentration, and C50=EC50 and nH=slope factor). This analysis was performed using a software developed at Cerep (Hill software) and validated by comparison with data generated by the commercial software SigmaPlot® 4.0 for Windows® (© 1997 by SPSS Inc.).

Row | solubility [1] [µg/mL] | EC50 ([3]; CHO cells expressing recombinant human EP2, cAMP by HTRF, 30 min, 37° C., read-out: In vitro functional assay EP2 (h) EC50) [nM] | In vitro functional assay EP2 (h) % response ([3]; percent of control specific agonist response (10 μM PGE2)) [%] | SMILES | overall IOP reduction [2] [%]
1 | 6780 (≈ 16.2 mM) |  |  | COC(=O)COc1ccc(F)c(NCc2cc(-c3cccc(F)c3)ccc2F)c1F [II(c), Methyl 2-[2,4-difluoro-3-[[2-fluoro-5-(3-fluorophenyl)phenyl]methylamino]phenoxy]acetate] | 
2 | 8120 (≈ 18.7 mM) |  |  | CCOC(=O)COc1ccc(F)c(NCc2cc(-c3cccc(F)c3)ccc2F)c1F [II(a), ethyl 2-[2,4-difluoro-3-[[2-fluoro-5-(3-fluorophenyl)phenyl]methylamino]phenoxy]acetate] | 
3 | 542 (≈ 1.13 mM) |  |  | O=C(O)COc1cccc(CN(Cc2ccc(-n3cccn3)cc2)S(=O)(=O)c2cccnc2)c1 [PF-04217329, taprenepag, reference compound] | 
4 | 711 (≈ 1.59 mM) | > 300 | 44 | CC(C)OC(=O)COc1ccc(F)c(NCc2cc(-c3cccc(F)c3)ccc2F)c1F [II(d), Isopropyl 2-[2,4-difluoro-3-[[2-fluoro-5-(3-fluorophenyl)phenyl]methylamino]phenoxy]acetate] | 22
